In the supplement of paper PMC10627819:

Legend:
[1] = tested on: S. aureus DSM 20231; assay: fitness (endpoint OD595 vs no drug) (fraction); higher = more growth
Procedure, shortened: (§1)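 In 384-well plates at 37 °C, cultures began at OD595 0.01 in 30 µl, with 55 µl used for S. pneumoniae. OD595 readings every 30 min for 14 h were corrected by the first reading. Fitness divides the stationary-phase transition optical density by the robust mean of no-drug control wells. The result is capped at 1.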

[2] = tested on: S. pneumoniae D39V; assay: as above
Procedure, shortened: as §1

[3] = tested on: B. subtilis 168; assay: Bliss interaction score (quartile over a dose matrix) (fitness difference); higher = more antagonism (negative = synergy)
Procedure, shortened: (§2)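 Combination data were used to infer fitness under each single drug. Fitness is the OD595 at entry into stationary phase divided by the robust mean of the plate's no-drug wells, with a cap of 1. The Bliss score is the observed minus the expected product fitness, summarised by quartiles over technical, biological and donor/recipient replicates.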

[4] = tested on: S. aureus DSM 20231; assay: as above
Procedure, shortened: as §2

[5] = tested on: S. aureus Newman; assay: as above
Procedure, shortened: as §2

[6] = tested on: S. pneumoniae D39V; assay: as above
Procedure, shortened: as §2

[7] = tested on: B. subtilis 168; assay: fitness (endpoint OD595 vs no drug) (fraction); higher = more growth
Procedure, shortened: as §1

[8] = tested on: S. aureus Newman; assay: as above
Procedure, shortened: as §1

[9] = first compound 0.2 µg/mL, partner 0.0625 µg/mL
[10] = first compound 0.2 µg/mL, partner 0.125 µg/mL
[11] = first compound 0.4 µg/mL, partner 0.0625 µg/mL
[12] = first compound 0.4 µg/mL, partner 0.125 µg/mL
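For Bliss interaction score (quartile over a dose matrix) in this document: first quartile when negative (synergy) and third quartile when positive (antagonism).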

SMILES: CCC[C@@H]1C[C@@H](C(=O)N[C@@H]([C@H]2O[C@H](SC)[C@H](O)[C@@H](O)[C@H]2O)[C@@H](C)O)N(C)C1 [Lincomycin] + Cn1nnc(-c2ccc(-c3ccc(N4C[C@H](CO)OC4=O)cc3F)cn2)n1 [Tedizolid]
- fitness ([1]; first compound 0.1 µg/mL, partner 0.0625 µg/mL): 0.806
- fitness ([1]; first compound 0.1 µg/mL, partner 0.125 µg/mL): 0.683
- fitness ([1]; first compound 0.1 µg/mL, partner 0.25 µg/mL): 0.364
- fitness [1, 9]: 0.568
- fitness [1, 10]: 0.434
- fitness ([1]; first compound 0.2 µg/mL, partner 0.25 µg/mL): 0.229
- fitness [1, 11]: 0.27
- fitness [1, 12]: 0.182
- fitness ([1]; first compound 0.4 µg/mL, partner 0.25 µg/mL): 0.115
- fitness ([2]; first compound 0.2 µg/mL, partner 0.03125 µg/mL): 0.732
- fitness [2, 9]: 0.796
- fitness [2, 10]: 0.665
- fitness ([2]; first compound 0.215 µg/mL, partner 0.125 µg/mL): 0.754
- fitness ([2]; first compound 0.215 µg/mL, partner 0.25 µg/mL): 0.731
- fitness ([2]; first compound 0.215 µg/mL, partner 0.5 µg/mL): 0.345
- fitness ([2]; first compound 0.4 µg/mL, partner 0.03125 µg/mL): 0.647
- fitness [2, 11]: 0.716
- fitness [2, 12]: 0.611
- fitness ([2]; first compound 0.43 µg/mL, partner 0.125 µg/mL): 0.661
- fitness ([2]; first compound 0.43 µg/mL, partner 0.25 µg/mL): 0.629
- fitness ([2]; first compound 0.43 µg/mL, partner 0.5 µg/mL): 0.277
- fitness ([2]; first compound 0.8 µg/mL, partner 0.03125 µg/mL): 0.549
- fitness ([2]; first compound 0.8 µg/mL, partner 0.0625 µg/mL): 0.67
- fitness ([2]; first compound 0.8 µg/mL, partner 0.125 µg/mL): 0.57
- fitness ([2]; first compound 0.86 µg/mL, partner 0.125 µg/mL): 0.209
- fitness ([2]; first compound 0.86 µg/mL, partner 0.25 µg/mL): 0.162
- fitness ([2]; first compound 0.86 µg/mL, partner 0.5 µg/mL): 0.0655
- Bliss interaction score [3]: 0.0845
- Bliss interaction score [4]: -0.114
- Bliss interaction score [5]: -0.129
- Bliss interaction score [6]: 0.138

SMILES: COc1c(N2C[C@@H]3CCCN[C@@H]3C2)c(F)cc2c(=O)c(C(=O)O)cn(C3CC3)c12 [Moxifloxacin] + CN(C)c1cc(NC(=O)CNC(C)(C)C)c(O)c2c1C[C@H]1C[C@H]3[C@H](N(C)C)C(O)=C(C(N)=O)C(=O)[C@@]3(O)C(O)=C1C2=O [Tigecycline]
- fitness ([7]; first compound 0.0312 µg/mL, partner 0.039 µg/mL): 0.0412
- fitness ([7]; first compound 0.0312 µg/mL, partner 0.078 µg/mL): 0.0391
- fitness ([7]; first compound 0.0312 µg/mL, partner 0.125 µg/mL, one replicate): 0.402
- fitness ([7]; first compound 0.0312 µg/mL, partner 0.156 µg/mL): 0.0455
- fitness ([7]; first compound 0.0312 µg/mL, partner 0.25 µg/mL, one replicate): 0.325
- fitness ([7]; first compound 0.0312 µg/mL, partner 0.5 µg/mL, one replicate): 0.372
- fitness ([7]; first compound 0.0625 µg/mL, partner 0.039 µg/mL): 0.0348
- fitness ([7]; first compound 0.0625 µg/mL, partner 0.078 µg/mL): 0.0627
- fitness ([7]; first compound 0.0625 µg/mL, partner 0.125 µg/mL, one replicate): 0.0347
- fitness ([7]; first compound 0.0625 µg/mL, partner 0.156 µg/mL): 0.0465
- fitness ([7]; first compound 0.0625 µg/mL, partner 0.25 µg/mL, one replicate): 0.0048
- fitness ([7]; first compound 0.0625 µg/mL, partner 0.5 µg/mL, one replicate): 0.0104
- fitness ([7]; first compound 0.125 µg/mL, partner 0.039 µg/mL): 0.0497
- fitness ([7]; first compound 0.125 µg/mL, partner 0.078 µg/mL): 0.0447
- fitness ([7]; first compound 0.125 µg/mL, partner 0.125 µg/mL, one replicate): 0.0119
- fitness ([7]; first compound 0.125 µg/mL, partner 0.156 µg/mL): 0.0454
- fitness ([7]; first compound 0.125 µg/mL, partner 0.25 µg/mL, one replicate): 0.0005
- fitness ([7]; first compound 0.125 µg/mL, partner 0.5 µg/mL, one replicate): 0.0203
- fitness ([7]; first compound 2 µg/mL, partner 0.039 µg/mL): 0.0218
- fitness ([7]; first compound 2 µg/mL, partner 0.078 µg/mL): 0.034
- fitness ([7]; first compound 2 µg/mL, partner 0.156 µg/mL): 0.0374
- fitness ([7]; first compound 4 µg/mL, partner 0.039 µg/mL): 0.0264
- fitness ([7]; first compound 4 µg/mL, partner 0.078 µg/mL): 0.0295
- fitness ([7]; first compound 4 µg/mL, partner 0.156 µg/mL): 0.0361
- fitness ([7]; first compound 8 µg/mL, partner 0.039 µg/mL): 0.008
- fitness ([7]; first compound 8 µg/mL, partner 0.078 µg/mL): 0.0149
- fitness ([7]; first compound 8 µg/mL, partner 0.156 µg/mL): 0.0156
- fitness ([8]; first compound 0.0075 µg/mL, partner 0.039 µg/mL): 0.764
- fitness ([8]; first compound 0.0075 µg/mL, partner 0.078 µg/mL): 0.761
- fitness ([8]; first compound 0.0075 µg/mL, partner 0.156 µg/mL): 0.773
- fitness ([8]; first compound 0.03 µg/mL, partner 0.039 µg/mL): 0.0791
- fitness ([8]; first compound 0.03 µg/mL, partner 0.078 µg/mL): 0.0794
- fitness ([8]; first compound 0.03 µg/mL, partner 0.156 µg/mL): 0.113
- fitness ([2]; first compound 0.0037 µg/mL, partner 0.65 µg/mL): 0.945
- fitness ([2]; first compound 0.0037 µg/mL, partner 1.3 µg/mL): 0.955
- fitness ([2]; first compound 0.0037 µg/mL, partner 2.6 µg/mL): 0.852
- fitness ([2]; first compound 0.005 µg/mL, partner 0.65 µg/mL): 0.931
- fitness ([2]; first compound 0.005 µg/mL, partner 1.3 µg/mL): 0.929
- fitness ([2]; first compound 0.005 µg/mL, partner 2.6 µg/mL): 0.909
- fitness ([2]; first compound 0.0075 µg/mL, partner 0.65 µg/mL): 0.937
- fitness ([2]; first compound 0.0075 µg/mL, partner 1.3 µg/mL): 0.94
- fitness ([2]; first compound 0.0075 µg/mL, partner 2.6 µg/mL): 0.905
- fitness ([2]; first compound 0.01 µg/mL, partner 0.65 µg/mL): 0.965
- fitness ([2]; first compound 0.01 µg/mL, partner 1.3 µg/mL): 0.946
- fitness ([2]; first compound 0.01 µg/mL, partner 2.6 µg/mL): 0.932
- fitness ([2]; first compound 0.015 µg/mL, partner 0.65 µg/mL): 0.932
- fitness ([2]; first compound 0.015 µg/mL, partner 1.3 µg/mL): 0.929
- fitness ([2]; first compound 0.015 µg/mL, partner 2.6 µg/mL): 0.901
- fitness ([2]; first compound 0.02 µg/mL, partner 0.65 µg/mL): 0.835
- fitness ([2]; first compound 0.02 µg/mL, partner 1.3 µg/mL): 0.94
- fitness ([2]; first compound 0.02 µg/mL, partner 2.6 µg/mL): 0.971
- Bliss interaction score [3]: -0.0275
- Bliss interaction score [4]: -0.0652
- Bliss interaction score [5]: -0.0557
- Bliss interaction score [6]: 0.0824

SMILES: COc1c(N2C[C@@H]3CCCN[C@@H]3C2)c(F)cc2c(=O)c(C(=O)O)cn(C3CC3)c12 [Moxifloxacin] + CN[C@@H]1[C@H](O[C@H]2[C@H](O[C@H]3[C@H](O)[C@@H](O)[C@H](N=C(N)N)[C@@H](O)[C@@H]3N=C(N)N)O[C@@H](C)[C@]2(O)C=O)O[C@@H](CO)[C@H](O)[C@H]1O [Streptomycin]
- fitness ([7]; first compound 0.0312 µg/mL, partner 2 µg/mL): 0.0439
- fitness ([7]; first compound 0.0312 µg/mL, partner 4 µg/mL): 0.0414
- fitness ([7]; first compound 0.0312 µg/mL, partner 8 µg/mL): 0.0382
- fitness ([7]; first compound 0.0625 µg/mL, partner 2 µg/mL): 0.0428
- fitness ([7]; first compound 0.0625 µg/mL, partner 4 µg/mL): 0.0341
- fitness ([7]; first compound 0.0625 µg/mL, partner 8 µg/mL): 0.0226
- fitness ([7]; first compound 0.125 µg/mL, partner 2 µg/mL): 0.041
- fitness ([7]; first compound 0.125 µg/mL, partner 4 µg/mL): 0.0379
- fitness ([7]; first compound 0.125 µg/mL, partner 8 µg/mL): 0.0381
- fitness ([7]; first compound 2 µg/mL, partner 2 µg/mL): 0.0315
- fitness ([7]; first compound 2 µg/mL, partner 4 µg/mL): 0.0296
- fitness ([7]; first compound 2 µg/mL, partner 8 µg/mL): 0.0146
- fitness ([7]; first compound 4 µg/mL, partner 2 µg/mL): 0.0231
- fitness ([7]; first compound 4 µg/mL, partner 4 µg/mL): 0.0178
- fitness ([7]; first compound 4 µg/mL, partner 8 µg/mL): 0.0188
- fitness ([7]; first compound 8 µg/mL, partner 2 µg/mL): 0.013
- fitness ([7]; first compound 8 µg/mL, partner 4 µg/mL): 0.0133
- fitness ([7]; first compound 8 µg/mL, partner 8 µg/mL): 0.0206
- fitness ([8]; first compound 0.0075 µg/mL, partner 1 µg/mL): 0.834
- fitness ([8]; first compound 0.0075 µg/mL, partner 2 µg/mL): 0.733
- fitness ([8]; first compound 0.015 µg/mL, partner 2 µg/mL): 0.606
- fitness ([8]; first compound 0.03 µg/mL, partner 2 µg/mL): 0.201
- fitness ([8]; first compound 0.03 µg/mL, partner 4 µg/mL): 0.0711
- fitness ([2]; first compound 0.0037 µg/mL, partner 2 µg/mL, one replicate): 0.903
- fitness ([2]; first compound 0.0037 µg/mL, partner 4 µg/mL): 0.891
- fitness ([2]; first compound 0.0037 µg/mL, partner 8 µg/mL): 0.785
- fitness ([2]; first compound 0.0037 µg/mL, partner 16 µg/mL, one replicate): 0.699
- fitness ([2]; first compound 0.005 µg/mL, partner 2 µg/mL): 0.922
- fitness ([2]; first compound 0.005 µg/mL, partner 4 µg/mL): 0.944
- fitness ([2]; first compound 0.005 µg/mL, partner 8 µg/mL): 0.892
- fitness ([2]; first compound 0.0075 µg/mL, partner 2 µg/mL, one replicate): 0.908
- fitness ([2]; first compound 0.0075 µg/mL, partner 4 µg/mL): 0.904
- fitness ([2]; first compound 0.0075 µg/mL, partner 8 µg/mL): 0.837
- fitness ([2]; first compound 0.0075 µg/mL, partner 16 µg/mL, one replicate): 0.743
- fitness ([2]; first compound 0.01 µg/mL, partner 2 µg/mL): 0.94
- fitness ([2]; first compound 0.01 µg/mL, partner 4 µg/mL): 0.958
- fitness ([2]; first compound 0.01 µg/mL, partner 8 µg/mL): 0.925
- fitness ([2]; first compound 0.015 µg/mL, partner 2 µg/mL, one replicate): 0.919
- fitness ([2]; first compound 0.015 µg/mL, partner 4 µg/mL): 0.882
- fitness ([2]; first compound 0.015 µg/mL, partner 8 µg/mL): 0.82
- fitness ([2]; first compound 0.015 µg/mL, partner 16 µg/mL, one replicate): 0.685
- fitness ([2]; first compound 0.02 µg/mL, partner 2 µg/mL): 0.881
- fitness ([2]; first compound 0.02 µg/mL, partner 4 µg/mL): 0.9
- fitness ([2]; first compound 0.02 µg/mL, partner 8 µg/mL): 0.861
- Bliss interaction score [3]: 0.0188
- Bliss interaction score [4]: 0.0517
- Bliss interaction score [5]: -0.031
- Bliss interaction score [6]: 0.0604
